Each molecule was assayed against T1, human MetAP2 (Homo sapiens, UniProt P50579) (assay: MetAP2 enzymatic screening test (isolated enzyme, Met-Pro-Arg-pNa substrate, absorbance at 405 nm)). Conditions: read-out: % inhibition hMETAP2 at 100 nM.
T1 construct: made in house; host or cells: Sf9 insect cells (baculovirus)
Assay type: biochemical
Method: The compounds according to the invention underwent biochemical studies in order to determine their capacity to inhibit the enzyme methionine-aminopeptidase2 (enzymatic test on isolated enzyme).
MetAP2 Enzymatic Screening Test
For the enzymatic test, human MetAP2 protein was obtained from a culture supernatant of insect cells (sf9) infected with MetAP2 recombinant baculovirus.
Before performing the experiment, dialysis of the MetAP2 supernatant is performed over 24 hours at 4° C. in a buffer (10 mM Hepes, 100 mM KCl, 10% glycerol, pH 7.4) in the presence of EDTA (1 mM) over the first 12 hours.
The dialysis supernatant is recovered and manganese, used as cofactor, is added to a final concentration of 300 μM.
The enzymatic test is a test in two steps.
Consequently, the second step consists in reacting the peptides cleaved in the preceding step with a second peptidase in order to release the chromophore.

T1 sequence (P50579 whole entry): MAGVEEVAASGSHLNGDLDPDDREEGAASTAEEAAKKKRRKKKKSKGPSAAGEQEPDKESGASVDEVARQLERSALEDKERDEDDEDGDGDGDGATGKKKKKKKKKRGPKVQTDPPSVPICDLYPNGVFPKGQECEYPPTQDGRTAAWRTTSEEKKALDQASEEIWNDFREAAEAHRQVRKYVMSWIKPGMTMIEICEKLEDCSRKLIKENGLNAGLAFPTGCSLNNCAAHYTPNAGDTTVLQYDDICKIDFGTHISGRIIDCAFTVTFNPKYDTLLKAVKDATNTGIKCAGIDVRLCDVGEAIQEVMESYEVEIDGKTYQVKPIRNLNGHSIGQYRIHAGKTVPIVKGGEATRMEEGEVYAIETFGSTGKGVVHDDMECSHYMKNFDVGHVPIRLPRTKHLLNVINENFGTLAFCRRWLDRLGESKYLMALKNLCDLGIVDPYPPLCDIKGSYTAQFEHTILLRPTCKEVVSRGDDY

| SMILES | inhibition at 0.1 µM |
| --- | --- |
| O=c1c2cn[nH]c2c2ccc(-c3ccnc(Cl)c3F)cc2n1CC(F)(F)F [Compound 41, 7-(2-chloro-3-fluoropyrid-4-yl)-5-(2,2,2-trifluoroethyl)-1,5-dihydro-4H-pyrazolo[4,3-c]quinolin-4-one] | 40% |
| COc1ccc(-c2ccc3c4[nH]ncc4c(=O)n(CC(F)(F)F)c3c2)c(CO)c1 [Compound 49, 7-(2-hydroxymethyl-4-methoxyphenyl)-5-(2,2,2-trifluoroethyl)-1,5-dihydro-4H-pyrazolo[4,3-c]quinolin-4-one] | 45% |
| O=c1c2cn[nH]c2c2ccc(-c3cc(Cl)cnc3Cl)cc2n1CC(F)(F)F [Compound 57, 7-(2,5-dichloropyrid-3-yl)-5-(2,2,2-trifluoroethyl)-1,5-dihydro-4H-pyrazolo[4,3-c]quinolin-4-one] | 38% |
| O=c1c2cn[nH]c2c2ccc(-c3cc(Cl)cnc3F)cc2n1CC(F)(F)F [Compound 129, 7-(5-chloro-2-fluoropyrid-3-yl)-5-(2,2,2-trifluoroethyl)-1,5-dihydro-4H-pyrazolo[4,3-c]quinolin-4-one] | 36% |
| CC(=O)Nc1ncc(C)cc1-c1ccc2c3[nH]ncc3c(=O)n(CC(F)(F)F)c2c1 [Compound 130, N-{5-methyl-3-[4-oxo-5-(2,2,2-trifluoroethyl)-4,5-dihydro-1H-pyrazolo[4,3-c]quinolin-7-yl]pyrid-2-yl}acetamide] | 48% |
| O=c1c2cn[nH]c2c2ccc(-c3ccccc3CCO)cc2n1CC(F)(F)F [Compound 131, 7-[2-(2-hydroxy-ethyl)phenyl]-5-(2,2,2-trifluoroethyl)-1,5-dihydro-4H-pyrazolo[4,3-c]quinolin-4-one] | 46% |
| Nc1ncc(F)cc1-c1ccc2c3[nH]ncc3c(=O)n(CC(F)(F)F)c2c1 [Compound 132, 7-(2-amino-5-fluoropyrid-3-yl)-5-(2,2,2-trifluoroethyl)-1,5-dihydro-4H-pyrazolo[4,3-c]quinolin-4-one] | 46% |
| O=c1c2cn[nH]c2c2ccc(-c3ccccc3S(=O)(=O)N3CCCC3)cc2n1CC(F)(F)F [Compound 133, 7-[2-(pyrrolidine-1-sulfonyl)phenyl]-5-(2,2,2-trifluoroethyl)-1,5-dihydro-4H-pyrazolo[4,3-c]quinolin-4-one] | 45% |
| CC(C)NS(=O)(=O)c1ccccc1-c1ccc2c3[nH]ncc3c(=O)n(CC(F)(F)F)c2c1 [Compound 134, N-isopropyl-2-[4-oxo-5-(2,2,2-trifluoroethyl)-4,5-dihydro-1H-pyrazolo[4,3-c]quinolin-7-yl]benzenesulfonamide] | 45% |
| Cc1cnc(F)c(-c2ccc3c4[nH]ncc4c(=O)n(CC(F)(F)F)c3c2)c1 [Compound 135, 7-(2-fluoro-5-methylpyrid-3-yl)-5-(2,2,2-trifluoroethyl)-1,5-dihydro-4H-pyrazolo[4,3-c]quinolin-4-one] | 45% |
| CCN(CC)S(=O)(=O)c1ccccc1-c1ccc2c3[nH]ncc3c(=O)n(CC(F)(F)F)c2c1 [Compound 136, N,N-diethyl-2-[4-oxo-5-(2,2,2-trifluoroethyl)-4,5-dihydro-1H-pyrazolo[4,3-c]quinolin-7-yl]benzenesulfonamide] | 45% |
| Cc1cc(N)ncc1-c1ccc2c3[nH]ncc3c(=O)n(CC(F)(F)F)c2c1 [Compound 137, 7-(6-amino-4-methylpyrid-3-yl)-5-(2,2,2-trifluoroethyl)-1,5-dihydro-4H-pyrazolo[4,3-c]quinolin-4-one] | 45% |
| COc1ccc(-c2ccc3c4[nH]ncc4c(=O)n(CC(F)(F)F)c3c2)c(C)n1 [Compound 138, 7-(6-methoxy-2-methylpyrid-3-yl)-5-(2,2,2-trifluoroethyl)-1,5-dihydro-4H-pyrazolo[4,3-c]quinolin-4-one] | 44% |
| Cc1cc(-c2ccc3c4[nH]ncc4c(=O)n(CC(F)(F)F)c3c2)cnc1-n1cnnc1 [Compound 139, 7-(5-methyl-6-[1,2,4]triazol-4-ylpyrid-3-yl)-5-(2,2,2-trifluoroethyl)-1,5-dihydro-4H-pyrazolo[4,3-c]quinolin-4-one] | 44% |
| Cc1cc(-n2cnnc2)ncc1-c1ccc2c3[nH]ncc3c(=O)n(CC(F)(F)F)c2c1 [Compound 140, 7-(4-methyl-6-[1,2,4]triazol-4-ylpyrid-3-yl)-5-(2,2,2-trifluoroethyl)-1,5-dihydro-4H-pyrazolo[4,3-c]quinolin-4-one] | 44% |
| O=C(c1ccc(-c2ccc3c4[nH]ncc4c(=O)n(CC(F)(F)F)c3c2)cn1)N1CCOCC1 [Compound 141, 7-[6-(morpholine-4-carbonyl)pyrid-3-yl]-5-(2,2,2-trifluoroethyl)-1,5-dihydro-4H-pyrazolo[4,3-c]quinolin-4-one] | 44% |
| CCc1ncncc1-c1ccc2c3[nH]ncc3c(=O)n(CC(F)(F)F)c2c1 [Compound 143, 7-(4-ethylpyrimidin-5-yl)-5-(2,2,2-trifluoroethyl)-1,5-dihydro-4H-pyrazolo[4,3-c]quinolin-4-one] | 43% |
| COC(=O)Cc1ccccc1-c1ccc2c3[nH]ncc3c(=O)n(CC(F)(F)F)c2c1 [Compound 144, methyl {2-[4-oxo-5-(2,2,2-trifluoroethyl)-4,5-dihydro-1H-pyrazolo[4,3-c]quinolin-7-yl]phenyl}acetate] | 43% |
| COc1ccnc(-c2ccc3c4[nH]ncc4c(=O)n(CC(F)(F)F)c3c2)c1 [Compound 145, 7-(4-methoxypyrid-2-yl)-5-(2,2,2-trifluoroethyl)-1,5-dihydro-4H-pyrazolo[4,3-c]quinolin-4-one] | 42% |
| CCCc1ncncc1-c1ccc2c3[nH]ncc3c(=O)n(CC(F)(F)F)c2c1 [Compound 146, 7-(4-propylpyrimidin-5-yl)-5-(2,2,2-trifluoroethyl)-1,5-dihydro-4H-pyrazolo[4,3-c]quinolin-4-one] | 42% |
| O=c1c2cn[nH]c2c2ccc(-c3ccccc3-c3cnco3)cc2n1CC(F)(F)F [Compound 148, 7-(2-oxazol-5-ylphenyl)-5-(2,2,2-trifluoroethyl)-1,5-dihydro-4H-pyrazolo[4,3-c]quinolin-4-one] | 42% |
| COc1ncc(-c2ccc3c4[nH]ncc4c(=O)n(CC(F)(F)F)c3c2)c(N(C)C)n1 [Compound 149, 7-(4-dimethylamino-2-methoxypyrimidin-5-yl)-5-(2,2,2-trifluoroethyl)-1,5-dihydro-4H-pyrazolo[4,3-c]quinolin-4-one] | 42% |

More lines, now with the values ahead:

| inhibition at 0.1 µM | SMILES |
| --- | --- |
| 62% | CCn1c(=O)c2cn[nH]c2c2ccc(-c3ccc4[nH]ncc4c3)cc21 [Compound 34, 5-ethyl-7-(1H-indazol-5-yl)-1,5-dihydro-4H-pyrazolo[4,3-c]quinolin-4-one] |
| 62% | CCNC(=O)c1cccc(-c2ccc3c4[nH]ncc4c(=O)n(CC)c3c2)c1 [Compound 35, N-ethyl-3-(5-ethyl-4-oxo-4,5-dihydro-1H-pyrazolo[4,3-c]quinolin-7-yl)benzamide] |
| 61% | CCn1c(=O)c2cn[nH]c2c2ccc(-c3ccc(F)c(C(N)=O)c3)cc21 [Compound 36, 5-(5-ethyl-4-oxo-4,5-dihydro-1H-pyrazolo[4,3-c]quinolin-7-yl)-2-fluoro-benzamide] |
| 60% | CCn1c(=O)c2cn[nH]c2c2ccc(-c3cccc(C(=O)NCCN(C)C)c3)cc21 [Compound 37, N-(2-dimethylaminoethyl)-3-(5-ethyl-4-oxo-4,5-dihydro-1H-pyrazolo[4,3-c]quinolin-7-yl)benzamide] |
| 60% | CCn1c(=O)c2cn[nH]c2c2ccc(-c3ccc(CNC(C)=O)cc3)cc21 [Compound 38, N-[4-(5-ethyl-4-oxo-4,5-dihydro-1H-pyrazolo[4,3-c]quinolin-7-yl)benzyl]acetamide] |
| 60% | CCn1c(=O)c2cn[nH]c2c2ccc(-c3cccc(C(=O)NCCOC)c3)cc21 [Compound 39, 3-(5-ethyl-4-oxo-4,5-dihydro-1H-pyrazolo[4,3-c]quinolin-7-yl)-N-(2-methoxyethyl)benzamide] |
| 40% | O=c1c2cn[nH]c2c2ccc(-c3cccc(O)c3)cc2n1CC(F)(F)F [Compound 40, 7-(3-hydroxyphenyl)-5-(2,2,2-trifluoroethyl)-1,5-dihydro-4H-pyrazolo[4,3-c]quinolin-4-one] |
| 43% | O=c1c2cn[nH]c2c2ccc(-c3cccc(Cl)c3O)cc2n1CC(F)(F)F [Compound 53, 7-(3-chloro-2-hydroxyphenyl)-5-(2,2,2-trifluoroethyl)-1,5-dihydro-4H-pyrazolo[4,3-c]quinolin-4-one] |
| 40% | COC(=O)c1ccc(-c2ccc3c4[nH]ncc4c(=O)n(CC(F)(F)F)c3c2)c(N)c1 [Compound 55, methyl 3-amino-4-[4-oxo-5-(2,2,2-trifluoroethyl)-4,5-dihydro-1H-pyrazolo[4,3-c]quinolin-7-yl]benzoate] |
| 41% | COc1ccc(-c2ccc3c4[nH]ncc4c(=O)n(CC(F)(F)F)c3c2)cn1 [Compound 128, 7-(6-methoxypyrid-3-yl)-5-(2,2,2-trifluoroethyl)-1,5-dihydro-4H-pyrazolo[4,3-c]quinolin-4-one] |
| 44% | Cc1nc(N)ccc1-c1ccc2c3[nH]ncc3c(=O)n(CC(F)(F)F)c2c1 [Compound 142, 7-(6-amino-2-methylpyrid-3-yl)-5-(2,2,2-trifluoroethyl)-1,5-dihydro-4H-pyrazolo[4,3-c]quinolin-4-one] |
| 42% | CCC(=O)Nc1ccc(-c2ccc3c4[nH]ncc4c(=O)n(CC(F)(F)F)c3c2)c(C)n1 [Compound 147, N-{6-methyl-5-[4-oxo-5-(2,2,2-trifluoroethyl)-4,5-dihydro-1H-pyrazolo[4,3-c]quinolin-7-yl]pyrid-2-yl}propionamide] |
